This note sets out measurements from ChEMBL document CHEMBL5104140, “Bicyclic pyrimidine compounds as potent IRAK4 inhibitors” (Bioorg Med Chem Lett, 2022).

One data set concerns THP-1. Put plainly: Antiinflammatory activity against human THP-1 cells assessed as inhibition of LPS induced IL-23 production. The format is functional, cell-based.
Data set [1] addresses T1, Interleukin-1 receptor-associated kinase 4 (Homo sapiens, UniProt Q9NWZ3).
T1 sequence (Q9NWZ3 whole entry): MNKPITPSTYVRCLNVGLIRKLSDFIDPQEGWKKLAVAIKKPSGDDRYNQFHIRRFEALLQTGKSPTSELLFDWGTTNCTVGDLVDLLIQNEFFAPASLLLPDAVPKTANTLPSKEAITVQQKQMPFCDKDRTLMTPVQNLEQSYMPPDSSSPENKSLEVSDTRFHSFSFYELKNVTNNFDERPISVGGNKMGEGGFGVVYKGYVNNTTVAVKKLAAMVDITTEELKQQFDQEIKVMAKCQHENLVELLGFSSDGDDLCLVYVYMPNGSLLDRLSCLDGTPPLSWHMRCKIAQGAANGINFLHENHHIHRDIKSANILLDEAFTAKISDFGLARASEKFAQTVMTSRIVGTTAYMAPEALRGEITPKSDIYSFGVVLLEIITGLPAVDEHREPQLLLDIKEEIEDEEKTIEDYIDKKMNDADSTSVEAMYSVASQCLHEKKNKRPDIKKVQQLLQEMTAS
Put plainly: Inhibition of IRAK4 (unknown origin).

A short description of data set [2]: Antiinflammatory activity against human dendritic cells assessed as inhibition of LPS induced IL-23 production. It is filed as functional, cell-based. The conditions noted are these: Dendritic cell.
For another data set, the system named is PAD. As to the kind of experiment: Induction of PAD activity against human A549 cells. It is filed as toxicity, cell-based.
Data set [3] is described as follows: Clearance in rat at 1 mg/kg, iv. It is filed as ADME, organism-based. The conditions noted are these: in vivo.
A short description of data set [4]: Oral bioavailability in rat at 5 mg/kg. Particulars: in vivo. The format is ADME, organism-based.
For data set [5], the system named is Mus musculus. Put plainly: Antiinflammatory activity against mouse assessed as inhibition of IL-1 beta-stimulated IL-6 expression at 75 mg/kg. It is filed as functional.
The nature of data set [6]: Plasma concentration in mouse at 75 mg/kg measured after 0.5 hrs. It is filed as ADME, organism-based.
Data set [7] can be described thus: Drug metabolism in rat liver microsomes assessed as oxidative metabolite formation. The format is ADME, Microsome.
Data set [8] deals with Mus musculus. Put plainly: Antiinflammatory activity against mouse assessed as inhibition of IL-1 beta-stimulated IL-6 expression at 45 mg/kg. It is filed as functional.
Data set [9] concerns Mus musculus. Put plainly: Antiinflammatory activity against mouse assessed as inhibition of IL-1 beta-stimulated IL-6 expression at 15 mg/kg. The format is functional.
For data set [10], the system named is Mus musculus. Put plainly: Antiinflammatory activity against mouse assessed as inhibition of IL-1 beta-stimulated IL-6 expression at 5 mg/kg. It is filed as functional.
The test system of data set [11] is Rattus norvegicus. Put plainly: Antiinflammatory activity against collagen-induced arthritis rat model assessed as inhibition of disease progression at 30 mg/kg, bid. It is filed as functional.
For data set [12], the system named is Rattus norvegicus. Put plainly: Antiinflammatory activity against collagen-induced arthritis rat model assessed as inhibition of disease progression at 5 mg/kg, bid. It is filed as functional.
Data set [13] deals with Rattus norvegicus. Put plainly: Antiinflammatory activity against collagen-induced arthritis rat model assessed as inhibition of disease progression at 10 mg/kg, bid. The format is functional.
Data set [14] has as its system Rattus norvegicus. Put plainly: Antiinflammatory activity against collagen-induced arthritis rat model assessed as inhibition of disease progression at 20 mg/kg, bid. It is filed as functional.

One may read the IC50 as the concentration needed to halve the response being measured. Usually clearance stands for the rate of elimination divided by the concentration. A higher clearance goes with efficient removal. In general, bioavailability refers to dose-corrected exposure relative to a reference, in per cent. Read a high bioavailability as much systemic uptake. As a reminder, the inhibition in vivo is the drop in the measured response relative to a control, in per cent. On to `NC(=O)[C@@H]1[C@H](Nc2nc(Nc3cc(F)cc(N4CCOCC4)c3)nc3ccn(C(F)F)c23)[C@H]2C=C[C@@H]1C2`, for which the IC50 with THP-1 is 0.22 µM; in [1] it was 0.009 µM; in [2], 0.26 µM; in the data set with PAD, 1 µM. Besides, in data set [3], the clearance is 0.6 L/h/kg. The compound further had a bioavailability in [4] of 37%. Besides, the inhibition in vivo at 75 mg/kg in the data set with Mus musculus [5] turned out to be 0%.

On to `NC(=O)[C@@H]1[C@H](Nc2nc(Nc3cc(F)cc(N4CCOCC4)c3)nc3ccsc23)[C@H]2C=C[C@@H]1C2`, for which the IC50 with THP-1 stood at 0.11 µM; in data set [1] it was 0.012 µM; in [2], 0.23 µM; in the data set on PAD, 2.3 µM. Further, the clearance in data set [3] was determined as 2.4 L/h/kg. The compound further registered a bioavailability in [4] of 24%. In the data set with Mus musculus [5], the inhibition in vivo at 75 mg/kg was found to be 30%.

With `Cn1ccc2nc(Nc3cccc(C(=O)N4CCCC4)c3)nc(N[C@H]3[C@@H](C(N)=O)[C@@H]4C=C[C@H]3C4)c21`, the IC50 turned out to be 0.13 µM in the data set with THP-1, 0.004 µM in data set [1], 0.26 µM in data set [2] and 9.4 µM with PAD. Besides, the clearance in [3] turned out to be 3.48 L/h/kg. The same compound showed a bioavailability in [4] of 1%.

As for `Cc1n[nH]c2nc(Nc3cccc(C(=O)N4CCCC4)c3)nc(N[C@H]3[C@@H](C(N)=O)[C@@H]4C=C[C@H]3C4)c12`, the IC50 was determined as 0.08 µM in the data set with THP-1, 0.003 µM in data set [1], 0.09 µM in [2] and 1.6 µM with PAD. Also, the clearance in data set [3] was 3.78 L/h/kg. For the same compound, the bioavailability in data set [4] is 27%. Also, in the data set with Mus musculus [5], the inhibition in vivo at 75 mg/kg came out at 0%. The compound also returned a concentration at 0.5 h in [6] of 0.065 µg/mL.

Turning to `NC(=O)[C@@H]1[C@H](Nc2nc(Nc3cccc(C(=O)N4CCCC4)c3)nc3ccsc23)[C@H]2C=C[C@@H]1C2`, the IC50 with THP-1 turned out to be 0.09 µM; in [2], 0.04 µM; with PAD, 3.8 µM. In data set [3], the clearance amounted to 6.78 L/h/kg. The Drug metabolism entry in data set [7] was “Metabolite_Detected”.

As to `NC(=O)[C@@H]1[C@H](Nc2nc(Nc3cccc(C(=O)N4CCCC4)c3)nc3ccn(C(F)F)c23)[C@H]2C=C[C@@H]1C2`, the IC50 stood at 0.13 µM in the data set on THP-1, 0.002 µM in data set [1], 0.04 µM in data set [2] and 1.5 µM in the data set with PAD. The clearance in data set [3] came to 5.28 L/h/kg. Moreover, the bioavailability in [4] stood at 8%. In addition, in the data set with Mus musculus [5], the inhibition in vivo at 75 mg/kg was 0%. The compound further showed a concentration at 0.5 h in [6] of 0.41 µg/mL.

For `CC(C)n1ncc2ccc(Nc3nc(N[C@H]4[C@@H](C(N)=O)[C@@H]5C=C[C@H]4C5)c4c(ccn4C(F)F)n3)cc21`, the half-inhibitory concentration (IC50) with THP-1 stood at 0.23 µM; in [1], 0.0043 µM; in data set [2], 0.22 µM; in the data set on PAD, 0.82 µM. In [3], this compound came in with a clearance of 0.36 L/h/kg. The same compound came in with a bioavailability in data set [4] of 43%. Also, the inhibition in vivo at 75 mg/kg in the data set with Mus musculus [5] amounted to 64%. For the same compound, in the data set on Mus musculus [8], the inhibition in vivo at 45 mg/kg was 37%. The inhibition in vivo at 15 mg/kg in the data set on Mus musculus [9] was determined as 16%. Also, the inhibition in vivo at 5 mg/kg in the data set on Mus musculus [10] worked out at 9%. Further, the inhibition in vivo at 30 mg/kg with Rattus norvegicus [11] turned out to be 100%.

With `NC(=O)[C@@H]1[C@H](Nc2nc(Nc3cc(F)cc(N4CCOCC4)c3)nc3ccoc23)[C@H]2C=C[C@@H]1C2`, the half-inhibitory concentration (IC50) in the data set on THP-1 was determined as 0.25 µM; in data set [1] it was 0.015 µM; in data set [2] it was 0.14 µM; with PAD it was 3.2 µM. The compound also returned a clearance in [3] of 3.18 L/h/kg. This compound also displayed a bioavailability in [4] of 38%. The inhibition in vivo at 75 mg/kg with Mus musculus [5] amounted to 65%. For the same compound, the inhibition in vivo at 30 mg/kg with Rattus norvegicus [11] came out at 100%. The inhibition in vivo at 5 mg/kg in the data set on Rattus norvegicus [12] amounted to 30%. Moreover, the inhibition in vivo at 10 mg/kg in the data set with Rattus norvegicus [13] is 56%. Also, the inhibition in vivo at 20 mg/kg in the data set on Rattus norvegicus [14] amounted to 97%.
